{"source": "patent US20060079552A1", "about": "“1-[2-(4-benzyl-4-hydroxy-piperidin-1-yl)-ethyl]-3-(2-methyl-quinolin-4-yl)-urea salt” (priority 2004, published 2006)", "key": {"[1]": {"experiment": "Hygroscopicity, static method (European Pharmacopoeia Technical Guide), weight increase in humidity cabinet", "format": "physicochemical", "conditions": "for Increase in weight (Δm): after exposure to 79% RH for 24 h, RT", "experimental": "Hygroscopicity was evaluated using the static method according to European Pharmacopoeia Technical Guide. Weight increase of the compound was observed when stored in a humidity cabinet at RT/79% RH for 24 h."}, "[2]": {"experiment": "Solubility in water and aqueous phosphate buffer pH 7", "format": "physicochemical", "conditions": "for Solubility Buffer pH 7 (phosphate, 100 mM): aqueous phosphate buffer pH 7, 100 mM", "experimental": "Solubility was measured in water and aqueous phosphate buffer (pH=7, 100 mM). Results are expressed as mg dissolved compound per mL solvent."}, "[3]": {"experiment": "Pharmacokinetic assessment after oral (gavage) administration in rats", "format": "in vivo, male Wistar rats", "conditions": "for mean exposure, area under the curve (AUC0-inf.): oral (gavage) 10 mg per kg, male Wistar rats, blood samples over 24 h", "experimental": "The pharmacokinetic parameters after oral (gavage) administration of 10 mg per kg of 1-[2-(4-benzyl-4-hydroxy-piperidin-1-yl )-ethyl]-3-(2-methyl-quinolin-4-yl )-urea given as free base or sulfate salt have been determined in male Wistar rats. Blood samples were taken over a time period of 24 h after dosing and analysed with a specific and sensitive liquid chromatography-mass-spectrometry (LC-MS/MS) method. Pharmacokinetic parameters were calculated using a non-compartmental method. The mean exposure of 1-[2-(4-benzyl-4-hydroxy-piperidin-1-yl)-ethyl]-3-(2-methyl-quinolin-4-yl)-urea, expressed as area under the curve (AUC0-inf.), after administration of compound I as free base was 194 ng*h/mL. The mean exposure of 1-[2-(4-benzyl-4-hydroxy-piperidin-1-yl )-ethyl]-3-(2-methyl-quinolin-4-yl )-urea expressed as area under the curve (AUC0-inf.), after administration of the compound described in Example 1 was 396 ng*h/mL."}, "[4]": {"experiment": "Stress test / behaviour at higher temperature and higher humidity", "format": "physicochemical", "experimental": "NMR spectra were recorded on a Varian Mercury 300VX NMR Spectrometer. The spectra are referenced to tetramethylsilane as external standard. X-ray diffraction patterns (XRD) were recorded on a Bruker D5000, using a CU-Kalpha (1.5418 Å) source, a 40 kV-30 mA generator, in a range of 3 et 40° (2theta). Stress test studies were done by exposing samples in open and closed glass bottles to the following conditions: 60° C./80% RH (8 weeks) and 80° C./RH not controlled (48 h)."}, "urotensin II receptor": {"target": "T1, urotensin II receptor (Homo sapiens, UniProt Q9UKP6)", "T1 sequence (Q9UKP6 1-389)": "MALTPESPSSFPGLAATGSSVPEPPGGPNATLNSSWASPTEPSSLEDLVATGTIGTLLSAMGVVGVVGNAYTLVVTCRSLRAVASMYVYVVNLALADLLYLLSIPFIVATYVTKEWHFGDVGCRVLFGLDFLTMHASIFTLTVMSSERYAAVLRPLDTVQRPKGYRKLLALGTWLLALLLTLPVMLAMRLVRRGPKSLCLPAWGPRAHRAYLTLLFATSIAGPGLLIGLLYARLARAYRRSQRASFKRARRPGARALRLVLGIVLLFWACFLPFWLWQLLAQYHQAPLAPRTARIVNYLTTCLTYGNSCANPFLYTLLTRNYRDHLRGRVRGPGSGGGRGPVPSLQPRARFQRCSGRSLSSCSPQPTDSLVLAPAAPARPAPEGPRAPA", "conditions": "Clozel et al., J. Pharmcol. Exp. Ther. 2004, 311, 204-212; cited from earlier work"}}, "note": "Structures can show the parent of a compound that is named as a salt."}
{"smiles": "Cc1cc(NC(=O)NCCN2CCC(O)(Cc3ccccc3)CC2)c2ccccc2n1", "note": "[Example 2, 1-[2-(4-Benzyl-4-hydroxy-piperidin-1-yl)-ethyl]-3-(2-methyl-quinolin-4-yl)-urea sulfate]", "values": [{"measurement": "Increase in weight (Δm)", "setting": "[1]; sulfate", "result": 4, "unit": "%"}, {"measurement": "Solubility Buffer pH 7 (phosphate, 100 mM)", "setting": "[2]; sulfate", "result": 27, "unit": "mg/mL"}, {"measurement": "Solubility water", "setting": "[2]; water, sulfate", "result": 11.3, "unit": "mg/mL"}]}
{"smiles": "Cc1cc(NC(=O)NCCN2CCC(O)(Cc3ccccc3)CC2)c2ccccc2n1", "note": "[Compound I, 1-[2-(4-Benzyl-4-hydroxy-piperidin-1-yl)-ethyl]-3-(2-methyl-quinolin4-yl)-urea]", "values": [{"measurement": "hygroscopicity (in words)", "setting": "[1]", "result": "hygroscopic"}, {"measurement": "Increase in weight (Δm)", "setting": "[1]; listed as Compound I as free base", "result": 8, "unit": "%"}, {"measurement": "Solubility Buffer pH 7 (phosphate, 100 mM)", "setting": "[2]", "result": 0.31, "unit": "mg/mL"}, {"measurement": "Solubility water", "setting": "[2]; water", "result": 0.8, "unit": "mg/mL"}, {"measurement": "solubility in water at pH 7 (in words)", "setting": "[2]; water at pH 7", "result": "slightly soluble"}, {"measurement": "mean exposure, area under the curve (AUC0-inf.)", "setting": "[3]; listed as compound I as free base", "result": 194, "unit": "ng·h/mL"}, {"measurement": "bioavailability after oral dosing", "setting": "[3]; rat, oral dosing", "result": "low bioavailability"}, {"measurement": "agglomeration", "setting": "[4]", "result": "agglomerates to a substance cake"}, {"measurement": "colour stability", "setting": "[4]", "result": "its colour changes at higher temperature and higher humidity"}, {"measurement": "urotensin II receptor antagonism", "setting": "urotensin II receptor", "result": "potent urotensin II receptor antagonist"}]}
{"smiles": "Cc1cc(NC(=O)NCCN2CCC(O)(Cc3ccccc3)CC2)c2ccccc2n1", "note": "[Example 1, 1-[2-(4-Benzyl-4-hydroxy-piperidin-1-yl)-ethyl]-3-(2-methyl-quinolin-4-yl)-urea sulfate]", "values": [{"measurement": "mean exposure, area under the curve (AUC0-inf.)", "setting": "[3]; sulfate", "result": 396, "unit": "ng·h/mL"}]}
{"smiles": "Cc1cc(NC(=O)NCCN2CCC(O)(Cc3ccccc3)CC2)c2ccccc2n1.O=C(O)CC(O)(CC(=O)O)C(=O)O", "note": "[Example 6, 1-[2-(4-Benzyl-4-hydroxy-piperidin-1-yl)-ethyl]-3-(2-methyl-quinolin-4-yl)-urea citrate]", "values": [{"measurement": "solubility", "setting": "[2]; water", "result": 17.8, "unit": "mg/mL"}]}
{"smiles": "Cc1cc(NC(=O)NCCN2CCC(O)(Cc3ccccc3)CC2)c2ccccc2n1", "note": "[Example 5, 1-[2-(4-Benzyl-4-hydroxy-piperidin-1-yl)-ethyl]-3-(2-methyl-quinolin-4-yl)-urea malate]", "values": [{"measurement": "Solubility water", "setting": "[2]; water, malate", "result": ">101", "unit": "mg/mL"}]}
